These results are taken from patent publication US10500388B2 (priority 2005, dated 2019).

In one experiment the test system is E coli. Format: cell-based, Escherichia coli.
The subject of another experiment is S. aureus. The experiment can be described thus: MIC of triclosan for inoculum and for colonies growing inside zones or under discs. The class given is cell-based. Particulars: Staphylococcus aureus. The method, then:
(§1) Wound guards (e.g. for protection of catheter or external fixation pin exit sites) in the form of discs of silicone elastomer of 2.5 cm diameter and 3.5 mm thickness were impregnated with either rifampin+clindamycin (A), rifampin+clindamycin+triclosan (B) or triclosan alone (C). The discs were then sterilised by autoclaving, and placed on agar plates seeded with the gram-positive bacteria Staphylococcus aureus. After overnight incubation, inhibition zones were measured and the discs were transferred to a further seeded plate, and this process repeated until no zones were seen. Any bacterial colonies growing inside the inhibition zones or under the discs were tested for minimal inhibitory concentration (MIC) to triclosan and their identities with the original inoculum determined by pulse field gel electrophoresis.

In the next experiment the test system is E. coli. The description is as above. The class given is cell-based. Particulars: Escherichia coli. The protocol:
as §1, with “electrophoresis. The results were as follows:” for “electrophoresis.”
The simulation was repeated using plates seeded with the gram-negative bacterium E coli.

[1] abbreviates: read-out: MIC of triclosan for resistant mutants.

SMILES strings stand for the structures. Read-outs that look alike come from different tables or passages of the source.

Description for E coli: A suitable method is the serial plate transfer test (SPTT) (Bayston R. Grove N, Siegel J, Lawellin D, Barsham S. Prevention of hydrocephalus shunt catheter colonisation in vitro by impregnation with antimicrobials. J Neurol Neurosurg Psychiatr 1989, 52: 605-689) which allows for a portion of an antimicrobial material, typically a catheter segment of approximately 5 mm length, to be placed on the surface of an agar plate seeded with susceptible index bacteria in such a way that the cut ends of the test catheter are not in contact with the eluting surface, by means of a well or other arrangement.
Wound guards (e.g. for protection of catheter or external fixation pin exit sites) in the form of discs of silicone elastomer of 2.5 cm diameter and 3.5 mm thickness were impregnated with either rifampin+clindamycin (A), rifampin+clindamycin+triclosan (B) or triclosan alone (C). […] After overnight incubation, inhibition zones were measured and the discs were transferred to a further seeded plate, and this process repeated until no zones were seen. Any bacterial colonies growing inside the inhibition zones or under the discs were tested for minimal inhibitory concentration (MIC) to triclosan and their identities with the original inoculum determined by pulse field gel electrophoresis. […]

As to `CO[C@H]1/C=C/O[C@@]2(C)Oc3c(C)c(O)c4c(O)c(c(/C=N/N5CCN(C)CC5)c(O)c4c3C2=O)NC(=O)/C(C)=C\C=C\[C@H](C)[C@H](O)[C@@H](C)[C@@H](O)[C@@H](C)[C@H](OC(C)=O)[C@@H]1C` [Rifampin, 2-(4-methyl-1-piperazinyl-iminomethyl)-rifamycin SV], the “Activity against E. coli” value with E coli is listed as “no activity”.

As usually defined, the MIC is the smallest concentration in the dilution series that meets the test's criterion for growth inhibition. As to `Oc1cc(Cl)ccc1Oc1ccc(Cl)cc1Cl` [Triclosan], the MIC was 125 µg/mL in the experiment with S. aureus (setting [1]); 3.75 µg/mL with S. aureus (S. aureus original inoculum, read-out: MIC of triclosan for inoculum); 16 µg/mL with E. coli (read-out: MIC of triclosan for inoculum); 250 µg/mL with E. coli (setting [1]).

`CCC[C@@H]1C[C@@H](C(=O)N[C@@H]([C@H]2O[C@H](SC)[C@H](O)[C@@H](O)[C@H]2O)[C@H](C)Cl)N(C)C1` [clindamycin]: the “Activity against E. coli” value with E coli is given as “no activity”.
